These are literature values, as cited in US5695952A, “Method for producing [Leu^13 ]motilin” (Kyowa Hakko Kogyo Co., Ltd., priority 1986, dated 1997).

The conditions of this data set: M. Fujino et al., Chem. Pharm. Bull., 26, 101 (1978).

Structures are written as SMILES.

Take `CC[C@H](C)[C@H](NC(=O)[C@@H]1CCCN1C(=O)[C@@H](NC(=O)[C@@H](N)Cc1ccccc1)C(C)C)C(=O)N[C@@H](Cc1ccccc1)C(=O)N[C@H](C(=O)N[C@@H](Cc1ccc(O)cc1)C(=O)NCC(=O)N[C@@H](CCC(=O)O)C(=O)N[C@@H](CC(C)C)C(=O)N[C@@H](CCC(N)=O)C(=O)N[C@@H](CCCNC(=N)N)C(=O)N[C@@H](CCSC)C(=O)N[C@@H](CCC(N)=O)C(=O)N[C@@H](CCC(=O)O)C(=O)N[C@@H](CCCCN)C(=O)N[C@@H](CCC(=O)O)C(=O)N[C@@H](CCCNC(=N)N)C(=O)N[C@@H](CC(N)=O)C(=O)N[C@@H](CCCCN)C(=O)NCC(=O)N[C@@H](CCC(N)=O)C(=O)O)[C@@H](C)O` [motilin]: the “motilin activity after oxidation of Met to the sulfoxide form” value is given as “decreased motilin activity”.
